We go through 27 compounds from US20100069441A1, “ANTIMICROBIAL INDOLINE COMPOUNDS FOR TREATMENT OF BACTERIAL INFECTIONS” (priority 2008, published 2010).

In brackets after ≈: the same amount, converted by molar mass. Where two headings read alike, the source gives them in different places.

In one data set the test system is S. aureus. Nature of the data set: In vivo antibacterial efficacy (ED50) in mice infected intraperitoneally. The following applies: Staphylococcus aureus, po. As to the method:
Determination of in vivo efficacy was performed by inoculating mice intraperitoneally with cultures of infecting organism using Linezolid as control. The compound was dissolved in DMSO with 20% cyclodextrin, diluted with deionized water, and administered orally (p.o.). The mice were dosed 1 hours after infection. Mortality was recorded after 72 hours. The 50% effective dose (ED50, mg/kg) was calculated at the end of the test.

Data set [1] deals with human CD34+ bone marrow cells. Nature of the data set: Bone marrow CD34+ cell growth inhibition (myelosuppressive potential), luminescence assay. In kind it is cell-based. Particulars: normalized IC50 ratio over reference compound of Example 18; incubation 9-10 days; higher ratio = reduced myelosuppression. As to the method:
Myelosuppressive potential (hematopoietic or bone marrow toxicity) was evaluated using human CD34^+ bone marrow cells, generally following methods described by Leach in International Patent Publication No. WO 2006/097828. Thus, an oxazolidinone compound was incubated with fresh human bone marrow cells for 9-10 days at 37° C. in 5% CO2 atmosphere. At end of the incubation period, the bone marrow toxicity was accessed by measuring inhibition (IC50, μg/mL) of CD34^+ cell growth using a luminescence assay. Lower IC50 value indicates a higher myelosuppression potential with enhanced probability of undesired adverse effects in vivo, while a higher IC50 value indicates reduced bone marrow toxicity. For comparison, the data are represented as normalized IC50 ratio indicating the fold of improvement over the reference compound of Example 18, based on IC50 for each compound in the CD34 assay.

In data set [2] the test system is methicillin-resistant Staphylococcus aureus (MRSA; from the Massachusetts General Hospital, USA). Nature of the data set: Antibacterial activity (MIC) against MRSA clinical isolate. It is filed as cell-based. The following applies: clinical isolate of MRSA, agar dilution. The text has this:
Compounds of this invention can have useful activity against a variety of pathogenic microorganisms. The in vitro activity of compounds of this invention can be assessed by standard testing procedures such as the determination of minimum inhibitory concentration (MIC) by agar dilution as described in “Approved Standard. Methods for Dilution Antimicrobial Susceptibility Tests for Bacteria That Grow Aerobically”, 3rd. ed., published 1993 by the National Committee for Clinical Laboratory Standards, Villanova, Pennsylvania, USA. Minimum inhibitory concentration (MIC) refers to the lowest concentration of drug (μg/mL) that inhibits visible growth of the organism. Lower MIC values indicate a higher antibacterial activity. […] The useful activity of compounds of the present invention against a clinical isolate of methicillin-resistant Staphylococcus aureus (MRSA; from the Massachusetts General Hospital, USA) is illustrated by the MIC data of Table 1.
(Agar dilution tests growth on a series of plates holding different concentrations.)

Data set [3] addresses T1, Human monoamine oxidase (MOA) A type enzyme (Homo sapiens, UniProt P21397).
T1 construct: purchased BD Gentest
T1 sequence (P21397 1-527): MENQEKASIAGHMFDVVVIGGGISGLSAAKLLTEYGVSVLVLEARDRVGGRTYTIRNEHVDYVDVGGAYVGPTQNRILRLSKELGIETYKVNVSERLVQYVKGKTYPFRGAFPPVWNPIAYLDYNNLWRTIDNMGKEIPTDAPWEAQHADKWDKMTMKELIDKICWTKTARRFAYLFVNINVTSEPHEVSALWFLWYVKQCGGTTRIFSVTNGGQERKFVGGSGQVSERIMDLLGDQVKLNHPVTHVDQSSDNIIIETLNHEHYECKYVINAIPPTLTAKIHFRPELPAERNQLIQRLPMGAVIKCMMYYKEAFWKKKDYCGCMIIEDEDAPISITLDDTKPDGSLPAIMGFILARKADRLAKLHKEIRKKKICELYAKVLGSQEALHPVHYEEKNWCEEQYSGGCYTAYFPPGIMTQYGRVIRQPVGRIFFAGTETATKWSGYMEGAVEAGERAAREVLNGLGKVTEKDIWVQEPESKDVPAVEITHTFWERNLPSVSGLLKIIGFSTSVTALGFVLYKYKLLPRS
Nature of the data set: Monoamine oxidase A inhibition (MAO-Glo assay). It is filed as biochemical. Particulars: MAO-Glo kit. The protocol:
Human monoamine oxidase (MOA) A type enzyme inhibition activity for select compounds was measured using a commercial MAO assay kit MAO-Glo™ from Promega Co. (USA). The assay was performed as described in the company's technical bulletin “MAO-Glo™ Assay”. The protocol involves an incubation of the MAO A enzyme (BD Gentest™) with a luminogenic MAO substrate to produce an enzymatic product which is converted to luciferin by a coupled reaction. The released luciferin undergoes further transformation to generate light that is detected and measured. The amount of the light is directly proportional to the activity of MAO. Percent inhibition at several concentrations is established relative to the uninhibited control rate, and the IC50 (μg/mL) values are calculated. […] The MAO inhibition data for select compound of this invention are illustrated in the Table 3 below.

Setting [4] is: mice, p.o., dosed 1 hour after infection, mortality recorded after 72 hours, read-out: ED50.

In general, ED50 refers to the midpoint of the dose-response relation. For orientation: MIC means the smallest concentration in the dilution series that meets the test's criterion for growth inhibition. Read a high MIC as weaker potency. For `Cn1nnc(-c2ccc(-c3ccc4c(c3)C[C@H]3[C@H](CO)OC(=O)N43)cn2)n1` [Example 1], the ED50 in the data set with S. aureus (setting [4]) came out at 4.2 mg/kg. Further, the “CD34 IC50 RATIO” value in data set [1] is listed as 4.6. This compound also came in with a minimum inhibitory concentration (MIC) in data set [2] of 0.5 µg/mL (≈ 1.37 µM).

`Cn1nnnc1-c1ccc(-c2ccc3c(c2)C[C@H]2[C@H](CO)OC(=O)N32)cn1` [Example 2]: the ED50 in the data set with S. aureus (setting [4]) was 6.1 mg/kg. In addition, in data set [1], the “CD34 IC50 RATIO” value is on record as 3.3. Also, in data set [2], the lowest concentration to inhibit growth (MIC) was 0.5 µg/mL (≈ 1.37 µM).

Regarding `O=C1O[C@@H](CO)[C@@H]2Cc3cc(-c4ccc(-n5cnnn5)nc4)ccc3N12` [Example 3], in the data set on S. aureus (setting [4]), the ED50 was found to be 3.3 mg/kg. The compound also had a minimum inhibitory concentration (MIC) in data set [2] of 0.25 µg/mL (≈ 0.714 µM).

With `Cn1nnc(-c2ccc(-c3ccc4c(c3)C[C@H]3[C@H](COP(=O)([O-])[O-])OC(=O)N43)cn2)n1.[Na+].[Na+]` [Example 5], in the data set with S. aureus (setting [4]), the 50% effective dose (ED50) amounted to 5.6 mg/kg.

One may read the IC50 as the concentration that inhibits the measured activity by half. High values mean weaker potency, low ones greater potency. `COC(=O)NC[C@@H]1OC(=O)N2c3ccc(-c4ccc(-c5nnn(C)n5)nc4)cc3C[C@@H]12` [Example 7] gave a minimum inhibitory concentration (MIC) in data set [2] of 1 µg/mL (≈ 2.37 µM). For the same compound, the IC50 in data set [3] was above 237 µM.

As for `CC(=O)NC[C@@H]1OC(=O)N2c3ccc(-c4ccc(-n5cc(C(C)(C)O)nn5)nc4)cc3C[C@@H]12` [Example 12], the “CD34 IC50 RATIO” value in data set [1] amounted to 2.5. For the same compound, the minimal inhibitory concentration (MIC) in data set [2] worked out at 1 µg/mL (≈ 2.23 µM).

In the case of `CC(=O)NC[C@@H]1OC(=O)N2c3ccc(-c4ccc(-n5cc(CO)nn5)nc4)cc3C[C@H]12` [Example 13], the “CD34 IC50 RATIO” value in data set [1] is 2.5. This compound also displayed an MIC in data set [2] of 1 µg/mL (≈ 2.38 µM). In data set [3], this compound registered a half-inhibitory concentration (IC50) above 238 µM.

`CC(=O)NC[C@@H]1OC(=O)N2c3ccc(-c4ccc(-c5noc(C)n5)nc4)cc3C[C@@H]12` [Example 14]: the “CD34 IC50 RATIO” value in data set [1] was 2.0. For the same compound, the MIC in data set [2] was 1 µg/mL (≈ 2.47 µM). Moreover, the IC50 in data set [3] was above 247 µM.

In data set [2], `CC(=O)NC[C@@H]1OC(=O)N2c3ccc(-c4ccc(-n5cc(C)nc5C)nc4)cc3C[C@H]12` [Example 15] gave an MIC of 4 µg/mL (≈ 9.58 µM).

In data set [2], `CC(=O)NC[C@@H]1OC(=O)N2c3ccc(-c4ccc(-n5cncn5)nc4)cc3C[C@H]12` [Example 16] displayed an MIC of 0.5 µg/mL (≈ 1.28 µM). This compound had an IC50 in data set [3] of 43 µM.

Regarding `CC(=O)NC[C@@H]1OC(=O)N2c3ccc(-c4ccc(-c5cc(CO)on5)nc4)cc3C[C@H]12` [Example 17], in data set [1], the “CD34 IC50 RATIO” value was found to be 4.5. Besides, in data set [2], 1 µg/mL (≈ 2.38 µM) was the least that counted as inhibitory (MIC).

`CC(=O)NC[C@@H]1OC(=O)N2c3ccc(-c4cccnc4)cc3C[C@H]12` [Example 18, reference compound]: the “CD34 IC50 RATIO” value in data set [1] is 1.

Regarding `Cc1cnnn1-c1ccc(-c2ccc3c(c2)C[C@H]2[C@H](CO)OC(=O)N32)cn1` [Example 20], in data set [1], the “CD34 IC50 RATIO” value is on record as 14.8.

Regarding `N#CCn1nnc(-c2ccc(-c3ccc4c(c3)C[C@H]3[C@H](CO)OC(=O)N43)cn2)n1` [Example 21], the 50% effective dose (ED50) in the data set with S. aureus (setting [4]) worked out at 9.5 mg/kg. Moreover, the “CD34 IC50 RATIO” value in data set [1] amounted to 2.3. The compound further yielded a minimal inhibitory concentration (MIC) in data set [2] of 0.25 µg/mL (≈ 0.642 µM).

As to `Cn1ncc(-c2ccc(-c3ccc4c(c3)C[C@H]3[C@H](CO)OC(=O)N43)cn2)n1` [Example 22], in data set [1], the “CD34 IC50 RATIO” value came to 8.3.

As for `Cc1nnc(-c2ccc(-c3ccc4c(c3)C[C@H]3[C@H](CO)OC(=O)N43)cn2)o1` [Example 23], the ED50 with S. aureus (setting [4]) was determined as 5.3 mg/kg. Moreover, the “CD34 IC50 RATIO” value in data set [1] was 2.5. This compound showed a minimal inhibitory concentration (MIC) in data set [2] of 0.25 µg/mL (≈ 0.686 µM).

With `N#CCc1cn(-c2ccc(-c3ccc4c(c3)C[C@H]3[C@H](CO)OC(=O)N43)cn2)nn1` [Example 24], the ED50 in the data set on S. aureus (setting [4]) was 9.8 mg/kg. In addition, in data set [1], the “CD34 IC50 RATIO” value worked out at 1.6. In data set [2], this compound displayed an MIC of 0.25 µg/mL (≈ 0.644 µM).

With `Cn1nncc1-c1ccc(-c2ccc3c(c2)C[C@H]2[C@H](CO)OC(=O)N32)cn1` [Example 25], the median effective dose (ED50) with S. aureus (setting [4]) was determined as 9.6 mg/kg. Moreover, in data set [1], the “CD34 IC50 RATIO” value is 4.9. This compound also registered an MIC in data set [2] of 0.25 µg/mL (≈ 0.688 µM).

For `Cn1cc(-c2ccc(-c3ccc4c(c3)C[C@H]3[C@H](CO)OC(=O)N43)cn2)nn1` [Example 26], in data set [1], the “CD34 IC50 RATIO” value stood at 11.4. Also, in data set [2], 1 µg/mL (≈ 2.75 µM) was the least that counted as inhibitory (MIC).

As for `O=C1O[C@@H](CO)[C@@H]2Cc3cc(-c4ccc(-n5cc(CF)nn5)nc4)ccc3N12` [Example 27], the “CD34 IC50 RATIO” value in data set [1] turned out to be 1.6. The lowest concentration to inhibit growth in data set [2] (MIC) was 0.25 µg/mL (≈ 0.656 µM).

As to `O=C1OCCN1c1ccc(-c2ccc3c(c2)C[C@H]2[C@H](CO)OC(=O)N32)cn1` [Example 28], the “CD34 IC50 RATIO” value in data set [1] turned out to be 2.3. 0.25 µg/mL (≈ 0.681 µM) was the least that counted as inhibitory in data set [2] (MIC).

For `Cc1nnn(-c2ccc(-c3ccc4c(c3)C[C@H]3[C@H](CO)OC(=O)N43)cn2)c1C` [Example 29], the “CD34 IC50 RATIO” value in data set [1] worked out at 15.5. In addition, in data set [2], the MIC was found to be 1 µg/mL (≈ 2.65 µM).

For `Cc1cn(-c2ccc(-c3ccc4c(c3)C[C@H]3[C@H](CO)OC(=O)N43)cn2)nn1` [Example 30], the “CD34 IC50 RATIO” value in data set [1] was determined as 4.1. For the same compound, in data set [2], the minimal inhibitory concentration (MIC) is 0.25 µg/mL (≈ 0.688 µM).

`Cc1nnc(-c2ccc(-c3ccc4c(c3)C[C@H]3[C@H](COP(=O)([O-])[O-])OC(=O)N43)cn2)o1.[Na+].[Na+]` [Example 32] registered an ED50 in the data set with S. aureus of 10 mg/kg.

In the data set on S. aureus, `Cn1nncc1-c1ccc(-c2ccc3c(c2)C[C@H]2[C@H](COP(=O)([O-])[O-])OC(=O)N32)cn1.[Na+].[Na+]` [Example 33] returned an ED50 of 9.1 mg/kg.

Turning to `N#CCc1cn(-c2ccc(-c3ccc4c(c3)C[C@H]3[C@H](COP(=O)([O-])[O-])OC(=O)N43)cn2)nn1.[Na+].[Na+]` [Example 39], the median effective dose (ED50) in the data set on S. aureus (setting [4]) was found to be 10 mg/kg.

`CC(=O)NC[C@H]1CN(c2ccc(N3CCOCC3)c(F)c2)C(=O)O1` [Linezolid, linezolid, reference compound] gave an MIC in data set [2] of 2 µg/mL (≈ 5.93 µM). Besides, in data set [3], the IC50 is 12.2 µM.
